According to patent publication US20100249698A1, “CONTROLLED EXOTHERM OF CYANOACRYLATE FORMULATIONS” (priority 2009, published 2010):

Legend:
[1] = potentiometric titration at 25° C. in 0.15 M sodium chloride solution; cited from earlier work
[2] = Setting time and exotherm (setting temperature) of cyanoacrylate film polymerized via initiator-impregnated porous applicator tip; type: physicochemical; conditions: Quadrol as initiator in porous tip with 2-OCA formulations A and B

- cure time [2]: clinically acceptable timeframe
Structure (SMILES): CC(O)CN(CCN(CC(C)O)CC(C)O)CC(C)O (stereo not drawn) [Quadrol, N,N,N′,N′-tetrakis(2-hydroxypropyl)ethylenediamine]
- pKa1 (tertiary amine group) [1]: 8.99±0.04
- pKa2 (quaternary ammonium form) [1]: 4.30±0.04
